{"source": "patent US20240262808A1", "about": "“XANTHINE OXIDASE INHIBITOR” (JIANGSU ATOM BIOSCIENCE AND PHARMACEUTICAL CO., LTD., priority 2021, published 2024)", "origin": "cited, not measured here", "key": {"[1]": {"tested_on": "subjects", "details": "allopurinol used at maximum doses; cited from earlier work"}, "[2]": {"tested_on": "patients with gout", "details": "patients with gout, per treatment group; cited from earlier work"}}, "data": [{"smiles": "Oc1ncnc2[nH]ncc12", "note": "[allopurinol, Allopurinol]", "values": [{"measurement": "Subjects reaching the treatment endpoint", "setting": "[1]", "value": "less than 50%"}, {"measurement": "Sudden cardiac death, share of group", "setting": "[2]", "value": 1.8, "unit": "%"}]}]}
